Measured values as given in ChEMBL document CHEMBL4014293, “Highly oxygenated antiausterity agents from the leaves of Uvaria dac” (2017).
The source made the active and inactive calls. No cut-off for these calls is given here.

How the values were obtained:
PSN1 = assay: Antiausteritic activity against human PSN1 cells in nutrient deprived medium after 24 hrs by WST8 assay; type: functional
MIA PaCa-2 = assay: Antiausteritic activity against human MIAPaCa2 cells in nutrient deprived medium after 24 hrs by WST8 assay; type: functional
CAPAN-1 = assay: Antiausteritic activity against human Capan1 cells in nutrient deprived medium after 24 hrs by WST8 assay; type: functional
PANC-1 [1] = assay: Antiausteritic activity against human PANC1 cells in nutrient deprived medium after 24 hrs by WST8 assay; type: functional
KLM1 = assay: Antiausteritic activity human KLM1 cells in nutrient deprived medium after 24 hrs by WST8 assay; type: functional
PANC-1 [2] = assay: Antiausteritic activity against human PANC1 cells in nutrient deprived medium assessed as induction of morphological changes at 25 to 50 uM after 24 hrs by ethidium bromide/acridine orange staining based fluorescent/phase contrast microscopic method; type: functional, cell-based

Row | Structure (SMILES) | Activity (PSN1) | Activity (MIA PaCa-2) | Activity (CAPAN-1) | Activity (PANC-1 [1]) | Activity (KLM1) | Activity (PANC-1 [2]) | PC50 (PSN1) [µM] | PC50 (MIA PaCa-2) [µM] | PC50 (CAPAN-1) [µM] | PC50 (PANC-1 [1]) [µM]
1 | CCCCCCCCCCCCCCCCCC(=O)O[C@@H]1C=C(COC(=O)c2ccccc2)[C@@H](O)[C@H](O)[C@H]1OC(=O)c1ccccc1 | Dose-dependent effect | Dose-dependent effect | Dose-dependent effect | Dose-dependent effect | Dose-dependent effect |  |  |  |  | 
2 | CCCCCCCCCCCCCCCCCC(=O)O[C@@H]1C=C(COC(=O)c2ccccc2)[C@@H](O)[C@H](OC(=O)c2ccccc2)[C@H]1O | Dose-dependent effect | Dose-dependent effect | Dose-dependent effect | Dose-dependent effect | Dose-dependent effect |  |  |  |  | 
3 | O=C(OCC1=C[C@@H](OC(=O)c2ccccc2)[C@H](OC(=O)c2ccccc2)[C@@H](O)[C@@H]1O)c1ccccc1 | Dose-dependent effect | Dose-dependent effect | Dose-dependent effect | Dose-dependent effect | Dose-dependent effect |  |  |  |  | 
4 | O=C(OCC1=C[C@@H](OC(=O)c2ccccc2)[C@H](O)[C@@H](OC(=O)c2ccccc2)[C@@H]1O)c1ccccc1 | Dose-dependent effect | Dose-dependent effect | Dose-dependent effect | Dose-dependent effect | Dose-dependent effect | Active | 9.7 | 29.1 | 73 | 20.1
